Experimental findings from article PMC2118486 (The Journal of Experimental Medicine, 2007) are described below.

The conditions of data set [1]: mouse, 37°C, up to 60 min.
In data set [2] the test system is purified peritoneal mast cells (Mc-cpa). The format is in vitro ADME, mouse. Particulars: Mc-cpaY356L,E378A mast cells, 2 μM ionomycin, 37°C, 60 min; reduced (DTT/IAA) sample; MALDI-TOF.

Take “Cys-Ser-Cys-Ser-Ser-Leu-Met-Asp-Lys-Glu-Cys-Val-Tyr-Phe-Cys-His-Leu-Asp-Ile-Ile-Trp”: in data set [1], the not cleaved result is listed as “ET-1 (1–21) was also maintained”.

In the case of sarafotoxin 6b [S6b], in data set [2], the “internal cleavage of S6b” value was “reaction products consistent with the masses of 1–13 and 1–14 fragments of S6b”.
